Laboratory results as given in US12514856B2, “Pediatric trazodone compositions and method of treatment thereof” (ANGELINI S.p.A., priority 2019, dated 2026).
“And” between values parts separate entries of the source, which are not always exact repeats. Identical values can stand only once. Like-named read-outs stand apart in the source and are kept apart here.

What was measured:
[1] = Toxicological Risk Assessment of excipients in oral drops (MDI vs ADI); parameters: species or system children; conditions: Maximum Daily Therapeutic Dose up to 0.5 mg/kg/day; for MDI (for 2 years aged children): Trazodone HCl 1.5% oral solution; for MDI (for 6 years aged children): Trazodone HCl 3.0% oral solution
Description: The Toxicological Risk Assessment of the formulations was performed to evaluate the safety of the excipients employed in the two oral drops formulations for pediatric use.

[2] = cited from earlier work
[3] = Caco-2 permeability; format: in vitro ADME; conditions: human
Excerpt: (§1) Derivation of key parameters is described below.

[4] = Physical chemistry of trazodone; format: physicochemical
Excerpt: as §1

[5] = Blood binding (E:P ratio, equilibrium dialysis); format: in vitro ADME
Excerpt: as §1

[6] = molecular target: CYP3A4 (Homo sapiens, UniProt P08684); assay: CYP3A4-mediated metabolism (retrograde calculation)
CYP3A4, sequence (P08684 whole entry): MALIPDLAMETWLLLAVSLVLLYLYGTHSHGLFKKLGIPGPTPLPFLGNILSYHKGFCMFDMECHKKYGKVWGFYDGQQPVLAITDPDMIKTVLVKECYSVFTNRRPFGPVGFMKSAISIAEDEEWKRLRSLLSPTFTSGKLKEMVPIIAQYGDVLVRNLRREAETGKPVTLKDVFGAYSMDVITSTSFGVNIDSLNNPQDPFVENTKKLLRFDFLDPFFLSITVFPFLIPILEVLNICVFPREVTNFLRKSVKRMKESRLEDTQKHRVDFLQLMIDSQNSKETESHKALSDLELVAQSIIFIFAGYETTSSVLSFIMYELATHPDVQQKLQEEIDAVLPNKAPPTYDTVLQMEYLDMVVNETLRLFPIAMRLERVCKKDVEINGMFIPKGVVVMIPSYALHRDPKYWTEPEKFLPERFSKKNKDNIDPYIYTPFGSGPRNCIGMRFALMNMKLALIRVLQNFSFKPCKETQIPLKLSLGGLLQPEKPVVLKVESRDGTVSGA

[7] = test system: human liver microsome; assay: Additional HLM CLint (retrograde calculation); conditions: 30% of hepatic metabolism assigned to undefined pathways
Excerpt: as §1

[8] = test system: children with insomnia affected by NDDs; assay: Phase II trial in children with insomnia affected by NDDs; format: in vivo, human
Description: Three different doses, 0.25/0.4 and 0.5 mg/kg/day were administered at bedtime in fruit juice (in a volume of about 200 mL) in the pediatric population of from 2 to 17 years old.
A multi-centre, randomised, parallel-group, single-blind phase II trial was designed, based on the prediction described in the previous Example 3, to evaluate the pharmacokinetics and PKPD relationship of trazodone after single and repeated oral doses in children from 2 to years of age, suffering from insomnia, affected by neurodevelopmental disorders (NDDs: autism spectrum disorder, intellectual disability or attention deficit hyperactivity disorder). The single-blind phase II trial is still ongoing.
The primary objective of this study is to assess the pharmacokinetics (PK) of trazodone after single and repeated doses in patients aged from 2 to years.
Among the secondary objectives of this study, there are the establishment of the pharmacokinetic-pharmacodynamic (PKPD) relationship of trazodone, as assessed by actigraphy measures, and the definition of the dose rationale in children and adolescents aged from […] taking into account the therapeutic exposure range in adults.
The parent's diary will also be used in the evaluation of the results. This phase II clinical trial is designed to assess the PK and PD of 3 dose levels of trazodone in children with insomnia affected by NDDs. A minimum of 36 patients will be randomly assigned (at least 30 evaluable patients, 10 for each treatment arm; at least 10 evaluable patients aged 2 to years, 10 evaluable patients aged 6 to […], 10 evaluable patients aged 12 to years; at least 3 patients for each age and treatment arm).
Patients are initially assigned to one of the 3 treatment arms. Patients in treatment arms 2 and 3 will receive 0.25 mg/kg/day for 3 days followed by a higher maintenance dose for 7 days: • Treatment arm 1: 0.25 mg/kg/day (on days 1 through 10) • Treatment arm 2: 0.4 mg/kg/day (0.25 mg/kg/day on days 1 through 3 and 0.4 mg/kg/day on days 4 through 10) • Treatment arm 3: 0.5 mg/kg/day (0.25 mg/kg/day on days 1 through 3 and 0.5 mg/kg/day on days 4 through 10).
Patients qualifying for the participation in the study at visit 1 (day 1, randomisation—first dose) have been admitted to the clinic at 2 out of 3 visits, according to a patient-specific PK sampling scheme. Due to the requirement of sparse sampling, each patient will contribute a total of 5 PK samples.
Sleep latency and total sleeping time have been recorded by actigraphy starting from 3 consecutive days prior to visit 1 up to the end of the treatment.
An interim analysis has been performed after completion of 18 patients to assess whether data collected allows the determination of the relevant PK parameters with the appropriate precision. The 18 patients are so distributed according treatment arms: 3 patients in treatment arm 1, 5 patients in treatment arm 2, 10 patients in treatment arm 3.

[9] = PBPK modelling (Simcyp Population-Based Simulator); conditions: ER; fitting of concentration-time data following a single oral dose of 300 mg ER trazodone
[10] = alternative value printed beside the first (EMA 2014; FDA 1998 USA; EFSA 2014; JECFA 1973)
[11] = first-listed value/reference (JECFA, SCF)

Row | SMILES | MDI (for 2 years aged children) [1] [mg/kg/day] | MDI (for 6 years aged children) [1] [mg/kg/day] | ADI [2, 10] | ADI [2, 11] | also measured
1 | O=C(O)CC(O)(CC(=O)O)C(=O)O [Citric acid anhydrous] | 0.17 | 0.08 |  |  | 
2 | O=C([O-])CN(CCN(CC(=O)[O-])CC(=O)O)CC(=O)O.[Na+].[Na+] [Disodium edetate] | 0.02 | 0.01 | 2.5 mg/kg/day | 1.9 mg/kg/day and 1.9 (ex- mg/kg/day | 
3 | C/C=C/C=C/C(=O)[O-].[K+] [K-Sorbate] |  |  | 11 mg/kg/day | 3 mg/kg/day | 
4 | CCCOC(=O)c1cc(O)c(O)c(O)c1 [Propyl gallate] | 0.03 | 0.02 | 0.5 mg/kg/day | 1.4 mg/kg/day | 
5 | CC(O)CO (stereo not shown) [Propylene glycol] | 10.00 | 5.00 | 50 mg/kg/day | 25 mg/kg/day | 
6 | O=C([O-])c1ccccc1.[Na+] [Sodium Benzoate] |  |  |  | 5 mg/kg/day | 
7 | [Na+].[OH-] [Sodium hydroxide] | 0.04 | 0.02 |  | Not limited | 
8 | OC[C@H]1O[C@H](O[C@]2(CCl)O[C@H](CCl)[C@@H](O)[C@@H]2O)[C@H](O)[C@@H](O)[C@H]1Cl [Sucralose] | 0.05 | 0.03 | 5 mg/kg/day and 5 (USA) mg/kg/day | 15 (UE) mg/kg/day and 15 mg/kg/day and 15 (UE)^ mg/kg/day | 
9 | OC[C@H]1O[C@@](CO)(O[C@H]2O[C@H](CO)[C@@H](O)[C@H](O)[C@H]2O)[C@@H](O)[C@@H]1O [Sucrose] |  |  |  | GRAS | 
10 | COC(=O)c1ccc(O)cc1 [methyl parahydroxybenzoate] |  |  |  | 10 mg/kg/day | 
11 | COCCc1ccc(OCC(O)CNC(C)C)cc1 (stereo not shown) [metoprolol] |  |  |  |  | Papp ([3]; Caco-2): 28.1 ×10⁻⁶ cm/s
12 | O=c1n(CCCN2CCN(c3cccc(Cl)c3)CC2)nc2ccccn12 [trazodone] |  |  |  |  | solubility as a function of pH [4]: fully soluble only at acidic pH and precipitates at pH values close to neutrality; pKa ([4]; Monoprotic Base): 6.61; B/P ([5]; blood to plasma, calculated from measured E:P ratio): 0.68; E:P ratio ([5]; erythrocyte to plasma ratio): of 0.2.; fup ([5]; fraction unbound in plasma, equilibrium dialysis): 0.0354; Papp ([3]; Caco-2 cells, read-out: mean Papp): 24.2 ×10⁻⁶ cm/s; CLint, CYP3A4 ([6]; Retrograde calculation, 70% of hepatic metabolism assigned to CYP3A4): 0.438 µL/min/pmol; fmCYP3A4 ([6]; estimation of CYP3A4-mediated metabolism): 70%; Additional HLM CLint [7]: 25.7 µL/min/mg; cumulative total sleep time ([8]; actigraphy, patients showing higher exposure to trazodone): slightly longer sleep time; correlation between secondary PK parameters and relative change from baseline in total sleep time ([8]; interim analysis): correlations were observed; Inter-individual variability in clearance estimates ([8]; pediatric patients vs adult subjects, interim analysis): considerably higher than what has been observed previously in adult subject; dose proportionality of pharmacokinetics ([8]; pediatric patients, 0.25/0.4/0.5 mg/kg/day, interim analysis of 18 patients): dose-proportional; sleep time ([8]; pediatric population with NDD, 0.4 and 0.5 mg/kg/day by drops, preliminary): increase the sleep time; total sleep time ([8]; visit 3, small proportion of patients assigned to 0.4 and 0.5 mg/kg dose, actigraphy): > 9 h; ka [9]: ER: 0.07 hr^−1
